Assay results taken from US20230085307A1, “PYRIDAZINONE COMPOUND AND HERBICIDE” (NISSAN CHEMICAL CORPORATION, priority 2019, published 2023).

Columns and labels:
[1] = test system: barnyard grass; assay: Test Example 5: herbicidal effect by foliage application, plastic box (Table 20, symbol H); format: in vivo, barnyard grass (Echinochloa crus-galli); settings: foliage application; for H: barnyard grass, herbicidal effect (criteria 0-5): AAH 320 g/ha
Summary of the method: (§1)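 Plants sown in sterilized diluvial soil and grown 14 days in a greenhouse at 25° C to 30° C, then sprayed on the foliage with the compound's emulsion diluted in water to a predetermined herbicide amount. Injury to weeds and crops scored three weeks after application on a visual rating scale.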

[2] = test system: southern crabgrass; assay: Test Example 4: herbicidal effect by soil treatment (Table 19, symbol F); format: in vivo, southern crabgrass (Digitaria ciliaris); settings: amount of applied herbicide 320 g/ha
Summary of the method: (§2)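 Three weeks of greenhouse growth at 25° C. to 30° C. followed a uniform surface spray of water-diluted emulsion at a predetermined herbicide amount. Seeds had been sown beforehand under about 1.5 cm of sterilized diluvial soil. Grading followed criteria set out in an earlier test.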

[3] = test system: late watergrass; assay: Test Example 2: herbicidal activity, application during weed generation under submerged conditions (Table 17, symbol A); format: in vivo, late watergrass (Echinochloa oryzicola); settings: AAH 320 g/ha; application during weed generation, submerged conditions
Summary of the method: (§3)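 Steps: fill Wagner pots with alluvial soil; add water to give 4 cm depth; sow the species mixed; grow under glass at 25–30° C.; at 1–2 leaves apply water-diluted emulsion formulation to the water surface at a fixed herbicide amount; score after 3 weeks.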

[4] = test system: Japanese bulrush; assay: Test Example 2: herbicidal activity, application during weed generation under submerged conditions (Table 17, symbol B); format: in vivo, Japanese bulrush (Schoenoplectus juncoides); settings: AAH 320 g/ha; application during weed generation, submerged conditions
Summary of the method: as §3

[5] = test system: green foxtail; assay: Test Example 4: herbicidal effect by soil treatment (Table 19, symbol G); format: in vivo, green foxtail (Setaria viridis); settings: amount of applied herbicide 320 g/ha
Summary of the method: as §2

[6] = test system: velvetleaf; assay: Test Example 4: herbicidal effect by soil treatment (Table 19, symbol M); format: in vivo, velvetleaf (Abutilon theophrasti); settings: amount of applied herbicide 320 g/ha
Summary of the method: as §2

[7] = test system: wild oat; assay: Test Example 4: herbicidal effect by soil treatment (Table 19, symbol I); format: in vivo, wild oat (Avena fatua); settings: amount of applied herbicide 320 g/ha
Summary of the method: as §2

[8] = test system: persian speedwell; assay: Test Example 5: herbicidal effect by foliage application, plastic box (Table 20, symbol R); format: in vivo, Persian speedwell (Veronica persica); settings: foliage application; for R: persian speedwell, herbicidal effect (criteria 0-5): AAH 320 g/ha
Summary of the method: as §1

[9] = test system: oval-leafed pondweed; assay: Test Example 2: herbicidal activity, application during weed generation under submerged conditions (Table 17, symbol C); format: in vivo, oval-leafed pondweed (Monochoria vaginalis); settings: AAH 320 g/ha; application during weed generation, submerged conditions
Summary of the method: as §3

[10] = test system: redroot pigweed; assay: Test Example 4: herbicidal effect by soil treatment (Table 19, symbol N); format: in vivo, redroot pigweed (Amaranthus retroflexus); settings: amount of applied herbicide 320 g/ha
Summary of the method: as §2

[11] = test system: chickweed; assay: Test Example 5: herbicidal effect by foliage application, plastic box (Table 20, symbol P); format: in vivo, common chickweed (Stellaria media); settings: foliage application; for P: chickweed, herbicidal effect (criteria 0-5): AAH 320 g/ha
Summary of the method: as §1

[12] = test system: redroot pigweed; assay: Test Example 5: herbicidal effect by foliage application, plastic box (Table 20, symbol N); format: in vivo, redroot pigweed (Amaranthus retroflexus); settings: foliage application; for N: redroot pigweed, herbicidal effect (criteria 0-5): AAH 320 g/ha
Summary of the method: as §1

[13] = test system: windgrass; assay: Test Example 5: herbicidal effect by foliage application, plastic box (Table 20, symbol L); format: in vivo, windgrass (Apera spica-venti); settings: foliage application; for L: windgrass, herbicidal effect (criteria 0-5): AAH 320 g/ha
Summary of the method: as §1

[14] = test system: barnyard grass; assay: Test Example 4: herbicidal effect by soil treatment (Table 19, symbol H); format: in vivo, barnyard grass (Echinochloa crus-galli); settings: amount of applied herbicide 320 g/ha
Summary of the method: as §2

[15] = test system: blackgrass; assay: Test Example 4: herbicidal effect by soil treatment (Table 19, symbol J); format: in vivo, blackgrass (Alopecurus myosuroides); settings: amount of applied herbicide 320 g/ha
Summary of the method: as §2

[16] = test system: persian speedwell; assay: Test Example 4: herbicidal effect by soil treatment (Table 19, symbol R); format: in vivo, Persian speedwell (Veronica persica); settings: amount of applied herbicide 320 g/ha
Summary of the method: as §2

[17] = evaluated three weeks after application
[18] = 320 g/ha, evaluated three weeks after application
[19] = 320 g/ha, three weeks after application

SMILES	H: barnyard grass, herbicidal effect (criteria 0-5) [1, 17]	herbicidal effect on F: southern crabgrass [2]	herbicidal effect rating, A: late watergrass [3]	herbicidal effect rating, B: Japanese bulrush [4]	herbicidal effect on G: green foxtail [5]	herbicidal effect on M: velvetleaf [6]	herbicidal effect on I: wild oat [7]	R: persian speedwell, herbicidal effect (criteria 0-5) [8, 17]	herbicidal effect rating, C: oval-leafed pondweed [9]	herbicidal effect on N: redroot pigweed [10]	P: chickweed, herbicidal effect (criteria 0-5) [11, 17]	N: redroot pigweed, herbicidal effect (criteria 0-5) [12, 17]	L: windgrass, herbicidal effect (criteria 0-5) [13, 17]	herbicidal effect on H: barnyard grass [14]	herbicidal effect on J: blackgrass [15]	herbicidal effect on R: persian speedwell [16]	also measured
Cc1nn(C)c(=O)c(-c2c(-c3ccc(Cl)cc3F)sc3ccc(F)cc23)c1O [2-348]	5 (Herbicidal rate of 90% or more (almost completely withered))	1 (Herbicidal rate of 5% or more and less than 20%)	3 (Herbicidal rate of 40% or more and less than 70%)	2 (Herbicidal rate of 20% or more and less than 40%)	4 (Herbicidal rate of 70% or more and less than 90%)	1 (Herbicidal rate of 5% or more and less than 20%)	0 (Herbicidal rate of 5% or less (almost no effect))	5 (Herbicidal rate of 90% or more (almost completely withered))	0 (Herbicidal rate of 5% or less (almost no effect))	3 (Herbicidal rate of 40% or more and less than 70%)	5 (Herbicidal rate of 90% or more (almost completely withered))	5 (Herbicidal rate of 90% or more (almost completely withered))	5 (Herbicidal rate of 90% or more (almost completely withered))	3 (Herbicidal rate of 40% or more and less than 70%)	0 (Herbicidal rate of 5% or less (almost no effect))	4 (Herbicidal rate of 70% or more and less than 90%)	
CCCC(=O)Oc1c(C)nn(C)c(=O)c1-c1c(-c2cccc(F)c2)sc2ccc(F)cc12 [2-202]			4 (Herbicidal rate of 70% or more and less than 90%)	3 (Herbicidal rate of 40% or more and less than 70%)					4 (Herbicidal rate of 70% or more and less than 90%)								herbicidal effect on H: barnyard grass (criteria 0-5) [1, 18]: 4 (Herbicidal rate of 70% or more and less than 90%); F: southern crabgrass, herbicidal effect rating [2]: 2 (Herbicidal rate of 20% or more and less than 40%); G: green foxtail, herbicidal effect rating [5]: 3 (Herbicidal rate of 40% or more and less than 70%); M: velvetleaf, herbicidal effect rating [6]: 0 (Herbicidal rate of 5% or less (almost no effect)); I: wild oat, herbicidal effect rating [7]: 0 (Herbicidal rate of 5% or less (almost no effect)); herbicidal effect on R: persian speedwell (criteria 0-5) [8, 18]: 4 (Herbicidal rate of 70% or more and less than 90%); N: redroot pigweed, herbicidal effect rating [10]: 5 (Herbicidal rate of 90% or more (almost completely withered)); herbicidal effect on P: chickweed (criteria 0-5) [11, 18]: 5 (Herbicidal rate of 90% or more (almost completely withered)); herbicidal effect on N: redroot pigweed (criteria 0-5) [12, 18]: 5 (Herbicidal rate of 90% or more (almost completely withered)); herbicidal effect on L: windgrass (criteria 0-5) [13, 18]: 2 (Herbicidal rate of 20% or more and less than 40%); H: barnyard grass, herbicidal effect rating [14]: 4 (Herbicidal rate of 70% or more and less than 90%); J: blackgrass, herbicidal effect rating [15]: 0 (Herbicidal rate of 5% or less (almost no effect)); R: persian speedwell, herbicidal effect rating [16]: 4 (Herbicidal rate of 70% or more and less than 90%)
CCCC(=O)Oc1c(C)nn(C)c(=O)c1-c1c(-c2ccc(F)c(F)c2)sc2ccc(F)cc12 [2-345]	5 (Herbicidal rate of 90% or more (almost completely withered))	3 (Herbicidal rate of 40% or more and less than 70%)	5 (Herbicidal rate of 90% or more (almost completely withered))	5 (Herbicidal rate of 90% or more (almost completely withered))	5 (Herbicidal rate of 90% or more (almost completely withered))	3 (Herbicidal rate of 40% or more and less than 70%)	1 (Herbicidal rate of 5% or more and less than 20%)	5 (Herbicidal rate of 90% or more (almost completely withered))	4 (Herbicidal rate of 70% or more and less than 90%)	5 (Herbicidal rate of 90% or more (almost completely withered))	5 (Herbicidal rate of 90% or more (almost completely withered))	5 (Herbicidal rate of 90% or more (almost completely withered))	1 (Herbicidal rate of 5% or more and less than 20%)	4 (Herbicidal rate of 70% or more and less than 90%)	0 (Herbicidal rate of 5% or less (almost no effect))	5 (Herbicidal rate of 90% or more (almost completely withered))	
CCCC(=O)Oc1c(C)nn(C)c(=O)c1-c1c(-c2ccc(OC(C)C)cc2)sc2ccccc12 [1-021]			2 (Herbicidal rate of 20% or more and less than 40%)	3 (Herbicidal rate of 40% or more and less than 70%)					0 (Herbicidal rate of 5% or less (almost no effect))								herbicidal effect grade, H: barnyard grass [1, 19]: 4 (Herbicidal rate of 70% or more and less than 90%); herbicidal effect rating, F: southern crabgrass [2]: 0 (Herbicidal rate of 5% or less (almost no effect)); herbicidal effect rating, G: green foxtail [5]: 1 (Herbicidal rate of 5% or more and less than 20%); herbicidal effect rating, M: velvetleaf [6]: 3 (Herbicidal rate of 40% or more and less than 70%); herbicidal effect rating, I: wild oat [7]: 0 (Herbicidal rate of 5% or less (almost no effect)); herbicidal effect grade, R: persian speedwell [8, 19]: 5 (Herbicidal rate of 90% or more (almost completely withered)); herbicidal effect rating, N: redroot pigweed [10]: 0 (Herbicidal rate of 5% or less (almost no effect)); herbicidal effect grade, P: chickweed [11, 19]: 5 (Herbicidal rate of 90% or more (almost completely withered)); herbicidal effect grade, N: redroot pigweed [12, 19]: 4 (Herbicidal rate of 70% or more and less than 90%); herbicidal effect grade, L: windgrass [13, 19]: 0 (Herbicidal rate of 5% or less (almost no effect)); herbicidal effect rating, H: barnyard grass [14]: 0 (Herbicidal rate of 5% or less (almost no effect)); herbicidal effect rating, J: blackgrass [15]: 0 (Herbicidal rate of 5% or less (almost no effect)); herbicidal effect rating, R: persian speedwell [16]: 5 (Herbicidal rate of 90% or more (almost completely withered))
